Data on two compounds can be found in patent US11192900B2, “Substituted 1,6-dihydropyridinones and 1,2-dihydroisoquinolinones as bet inhibitors” (NUVATION BIO INC., priority 2018, dated 2021).

Test [1] has as its system IEC-6 rat intestinal epithelial cell line. Kind of test: IEC-6 cell viability, Protocol B (toxicity to non-cancerous cells). Type of test: cell-based. To be noted: Rattus norvegicus; IEC-6, 4000 cells per well, 48 hrs. As for the experimental part:
The effects of test compounds were also studied in the IEC-6 rat intestinal epithelial cell line to assess potential toxicity to non-cancerous cells. The cells were harvested during the logarithmic growth period and counted. In Protocol A, cells were seeded at a count of 3000 cells per well/100 μl in a 96-well plate. After seeding, cells were incubated at 37° C., 5% CO2 for 24 hr. Cells were treated with test compounds at 8 concentrations within a desired concentration range (e.g. 5 nM-10 μM) for generation of dose response curves by preparing serial dilutions of the test compound in DMSO which were further diluted with culture medium and then added to each well. The plate was further incubated for another 96 hrs in humidified incubator at 37° C. and 5% CO2. The assay was terminated by addition of resazurin (# R7017, Sigma). The plate was incubated for 4 hr at 37° C., 5% CO2 and fluorescence was measured using excitation and emission wavelengths of 535 and 590 nm, respectively. Cell viability data were plotted using GraphPad Prism (GraphPad Software, Inc., San Diego, Calif.). In addition, a nonlinear regression model with a sigmoidal dose response and variable slope within GraphPad Prism was used to calculate the IC50 value of individual test compounds. Protocol B was the same as Protocol A except that cells were seeded at a count of 4000 cells per well/100 μl in a 96-well plate, and the incubation with test compound was for 48 hrs instead of 96 hrs.

Test [2] deals with MV-4-11 human acute myeloid leukemia cell line. Kind of test: Second cell viability assay in MV-4-11 (Cell Titer-Glo). The format is cell-based. To be noted: Homo sapiens; MV4-11, Cell Titer-Glo, 72 hrs; read-out: Cell Viability IC50 in MV4-11 cells. How it is done:
The effects of test compounds were studied in a second cell viability assay in the MV-4-11 human acute myeloid leukemia cell line. The cells were harvested during the logarithmic growth period and counted. Cells were seeded at a count of 15000 cells per well/100 μl. After seeding, cells were incubated at 37° C., 5% CO2 for 1 hr. Cells were treated with test compounds at 8 concentrations within a desired concentration range (e.g. 5 nM-[…]) for generation of dose response curves by preparing serial dilutions of the test compound in DMSO which were further diluted with culture medium and then added to each well. The plate was further incubated for another 72 hrs in a humidified incubator at 37° C. and 5% CO2. The assay was terminated by addition of Cell Titer-Glo reagent (Promega, Madison, Wis.) at ¼ the volume of total medium per well. Contents were mixed, the plate was incubated for 10 min at room temperature and luminescence was measured. Cell viability data were plotted using GraphPad Prism (GraphPad Software, Inc., San Diego, Calif.). In addition, a nonlinear regression model with a sigmoidal dose response and variable slope within GraphPad Prism was used to calculate the IC50 value of individual test compounds.

The subject of test [3] is 22Rv1 human prostate carcinoma cell line. The experiment in a line: Cell viability assay (resazurin). The format is cell-based. The settings on record: 22Rv1, resazurin, 72 hrs. How it is done:
The effects of test compounds were also studied in the 22Rv1 human prostate carcinoma and MDA-MB-231 human breast adenocarcinoma cell lines. The cells were harvested during the logarithmic growth period and counted. Cells were seeded at a count of 3000 cells (22Rv1) or 5000 cells (MDA-MB-231) per well/100 μl in a 96-well plate. After seeding, cells were incubated at 37° C., 5% CO2 for 24 hr. Cells were treated with test compounds at 8 concentrations within a desired concentration range (e.g. 5 nM-10 μM) for generation of dose response curves by preparing serial dilutions of the test compound in DMSO which were further diluted with culture medium and then added to each well. The plate was further incubated for another 72 hrs (22Rv1) or 96 hrs (MDA-MB-231) in humidified incubator at 37° C. and 5% CO2. The assay was terminated by addition of resazurin (# R7017, Sigma). The plate was incubated for 4 hr at 37° C., 5% CO2 and fluorescence was measured using excitation and emission wavelengths of 535 and 590 nm, respectively. Cell viability data were plotted using GraphPad Prism (GraphPad Software, Inc., San Diego, Calif.). In addition, a nonlinear regression model with a sigmoidal dose response and variable slope within GraphPad Prism was used to calculate the IC50 value of individual test compounds.

In a further test the target is BRD4-2 (Homo sapiens (Human), UniProt O60885). Kind of test: Bromodomain and Extraterminal Domain (BET) Binding Assay. To be noted: Table 3; read-out: BRD4-2 IC50. The essentials: (§1)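 AlphaScreen displacement of biotinylated H4 (1-21) K5/8/12/16Ac peptide, in 50 mM HEPES pH 7.5, 100 mM NaCl, 1 mg/ml BSA, 0.05% CHAPS, 0.5% DMSO. Protein-compound preincubation 30 min RT, then ligand 30 min, donor then acceptor beads 60 min dark. Inhibition versus plate controls; IC50 from 10-point titrations.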

A further test addresses BRD4-1 (Homo sapiens (Human), UniProt O60885). Described as above. To be noted: Table 3; read-out: BRD4-1 IC50. The gist of the method:
as §1

Each structure is given as a SMILES string. pIC50: −log10 of the molar value.

For the compound `CCS(=O)(=O)Nc1ccc(Oc2c(C)cc(F)cc2C)c(-n2cc(C)c(=O)c3ccccc32)c1` [Compound 570, N-(4-(4-fluoro-2,6-dimethylphenoxy)-3-(3-methyl-4-oxoquinolin-1(4H)-yl)phenyl)ethanesulfonamide], the negative-log IC50 (pIC50) in test [1] is 5.54; in test [2] it was 6.28; in test [3] it was 5.90; at BRD4-2, 7.96; on BRD4-1, 5.86.
Regarding `CC(=O)Nc1ccc(Oc2c(C)cc(F)cc2C)c(-n2cc(C)c(=O)c3ccccc32)c1` [Compound 710, N-(4-(4-fluoro-2,6-dimethylphenoxy)-3-(3-methyl-4-oxoquinolin-1(4H)-yl)phenyl)acetamide], the pIC50 in test [1] was 5.12; in test [2], 5.61; in test [3], 5.18; on BRD4-2, 6.53; at BRD4-1 it was 5.09.
